According to the CheMixHub viscosity set:
Values joined by “and” are separate entries in the source; they are usually repeats but may differ in a detail not shown here. Equal values may be shown once.

Test: xn = mol fraction of the nth substance listed

COc1ccccc1 + C1COCCO1
viscosity [mPa·s]
Conditions | 293.15 K | 298.15 K | 303.15 K | 308.15 K | 313.15 K | 323.15 K
101 kPa, x1 = 0.0973 | – | 1.154 | 1.063 | 0.9679 | 0.9021 | –
101 kPa, x1 = 0.1993 | – | 1.136 | 1.04 | 0.9633 | 0.8956 | –
101 kPa, x1 = 0.3019 | – | 1.105 | 1.021 | 0.9435 | 0.8729 | –
101 kPa, x1 = 0.4003 | – | 1.094 | 1.011 | 0.9342 | 0.8659 | –
101 kPa, x1 = 0.4999 | – | – | – | 0.9209 | 0.854 | –
101 kPa, x1 = 0.5976 | – | 1.06 | 0.983 | 0.9122 | 0.8465 | –
101 kPa, x1 = 0.7024 | – | – | 0.9723 | 0.9001 | 0.8338 | –
101 kPa, x1 = 0.7992 | – | – | 0.9564 | 0.8957 | 0.8226 | –
101 kPa, x1 = 0.9003 | – | 1.019 | 0.9451 | 0.8765 | 0.8129 | –
101.3 kPa, x1 = 0.1191 | 1.251 | – | 1.062 | – | 0.916 | 0.799
101.3 kPa, x1 = 0.2422 | 1.218 | – | 1.037 | – | 0.898 | 0.785
101.3 kPa, x1 = 0.3646 | 1.223 | – | 1.014 | – | 0.879 | 0.77
101.3 kPa, x1 = 0.4786 | 1.195 | – | 1.018 | – | 0.882 | 0.76
101.3 kPa, x1 = 0.6021 | 1.16 | – | 0.981 | – | 0.853 | 0.749
101.3 kPa, x1 = 0.7164 | 1.125 | – | 0.965 | – | 0.84 | 0.738
101.3 kPa, x1 = 0.8783 | 1.099 | – | 0.943 | – | 0.822 | 0.724

COc1ccccc1 + CC1COC(=O)O1
viscosity [mPa·s], 101.33 kPa
Conditions | x2 = 0.0794 | x2 = 0.1323 | x2 = 0.2487 | x2 = 0.3578 | x2 = 0.4971 | x2 = 0.5795 | x2 = 0.6669 | x2 = 0.7278 | x2 = 0.835 | x2 = 0.9009
293.15 K | 1.142 | 1.199 | 1.316 | 1.449 | 1.64 | 1.773 | 1.917 | 2.031 | 2.246 | 2.406
303.15 K | 0.971 | 1.013 | 1.101 | 1.212 | 1.372 | 1.479 | 1.591 | 1.682 | 1.851 | 1.978
313.15 K | 0.849 | 0.889 | 0.972 | 1.066 | 1.177 | 1.26 | 1.347 | 1.423 | 1.569 | 1.671

C1CCOC1 + CC#N
viscosity [mPa·s], 101 kPa
Conditions | x2 = 0.1633 | x2 = 0.3052 | x2 = 0.4295 | x2 = 0.5394 | x2 = 0.6372 | x2 = 0.7249 | x2 = 0.8039 | x2 = 0.8754 | x2 = 0.9405
298.15 K | 0.4419 | 0.4236 | 0.4075 | 0.3932 | 0.3808 | 0.3701 | 0.3611 | 0.3539 | 0.3481
308.15 K | 0.4066 | 0.3875 | 0.3701 | 0.355 | 0.3425 | 0.3321 | 0.3242 | 0.3184 | 0.3145
318.15 K | 0.3683 | 0.3497 | 0.334 | 0.3202 | 0.3089 | 0.3001 | 0.2938 | 0.2901 | 0.2879

CC1COC(=O)O1 (stereo not drawn) + CC#N
viscosity [mPa·s], 101.3 kPa
Conditions | x1 = 0.0418 | x1 = 0.0892 | x1 = 0.1438 | x1 = 0.2071 | x1 = 0.2815 | x1 = 0.3701 | x1 = 0.4776 | x1 = 0.6104 | x1 = 0.7791
298.15 K | 0.383 | 0.423 | 0.479 | 0.551 | 0.642 | 0.778 | 0.968 | 1.248 | 1.675
303.15 K | 0.363 | 0.403 | 0.454 | 0.521 | 0.605 | 0.731 | 0.906 | 1.161 | 1.535
308.15 K | 0.347 | 0.384 | 0.432 | 0.494 | 0.575 | 0.693 | 0.846 | 1.078 | 1.42
313.15 K | 0.331 | 0.367 | 0.411 | 0.469 | 0.543 | 0.654 | 0.802 | 1.054 | 1.31
318.15 K | 0.316 | 0.353 | 0.397 | 0.455 | 0.509 | 0.625 | 0.76 | 0.965 | 1.22

Cc1ccccc1 + CC#N
Conditions | viscosity [mPa·s]
298.15 K, 101.3 kPa, x1 = 0.04717 | 0.348
298.15 K, 101.3 kPa, x1 = 0.1002 | 0.35
298.15 K, 101.3 kPa, x1 = 0.1603 | 0.365
298.15 K, 101.3 kPa, x1 = 0.229 | 0.38
298.15 K, 101.3 kPa, x1 = 0.3082 | 0.403
298.15 K, 101.3 kPa, x1 = 0.4006 | 0.427
298.15 K, 101.3 kPa, x1 = 0.5097 | 0.457
298.15 K, 101.3 kPa, x1 = 0.6406 | 0.487
298.15 K, 101.3 kPa, x1 = 0.8004 | 0.527
298.17 K, 100 kPa, x2 = 0.5 | 0.4526
298.19 K, 100 kPa, x2 = 0.25 | 0.5085
303 K, 100 kPa, x2 = 0.126 | 0.5031
303 K, 100 kPa, x2 = 0.2324 | 0.4911
303 K, 100 kPa, x2 = 0.3293 | 0.4787
303 K, 100 kPa, x2 = 0.4233 | 0.4725
303 K, 100 kPa, x2 = 0.5023 | 0.4621
303 K, 100 kPa, x2 = 0.6588 | 0.4355
303 K, 100 kPa, x2 = 0.7316 | 0.4231
303 K, 100 kPa, x2 = 0.876 | 0.4007
308 K, 100 kPa, x2 = 0.126 | 0.4825
308 K, 100 kPa, x2 = 0.2324 | 0.4755
308 K, 100 kPa, x2 = 0.3293 | 0.4625
308 K, 100 kPa, x2 = 0.4233 | 0.4525
308 K, 100 kPa, x2 = 0.5023 | 0.4436
308 K, 100 kPa, x2 = 0.6588 | 0.4166
308 K, 100 kPa, x2 = 0.7316 | 0.4038
308 K, 100 kPa, x2 = 0.876 | 0.3715
308.15 K, 101 kPa, x1 = 0.1038 | 0.3334
308.15 K, 101 kPa, x1 = 0.2993 | 0.3692
308.15 K, 101 kPa, x1 = 0.3885 | 0.3887
308.15 K, 101 kPa, x1 = 0.5986 | 0.424
308.15 K, 101 kPa, x1 = 0.6907 | 0.4457
308.15 K, 101 kPa, x1 = 0.7946 | 0.4617
308.15 K, 101 kPa, x1 = 0.8925 | 0.4789
308.15 K, 101.3 kPa, x1 = 0.04717 | 0.309
308.15 K, 101.3 kPa, x1 = 0.1002 | 0.309
308.15 K, 101.3 kPa, x1 = 0.1603 | 0.33
308.15 K, 101.3 kPa, x1 = 0.3082 | 0.375
308.15 K, 101.3 kPa, x1 = 0.4006 | 0.389
308.15 K, 101.3 kPa, x1 = 0.5097 | 0.421
308.15 K, 101.3 kPa, x1 = 0.6406 | 0.434
308.15 K, 101.3 kPa, x1 = 0.8004 | 0.45
313 K, 100 kPa, x2 = 0.126 | 0.4655
313 K, 100 kPa, x2 = 0.2324 | 0.4551
313 K, 100 kPa, x2 = 0.3293 | 0.4425
313 K, 100 kPa, x2 = 0.4233 | 0.4311
313 K, 100 kPa, x2 = 0.5023 | 0.4179
313 K, 100 kPa, x2 = 0.6588 | 0.4006
313 K, 100 kPa, x2 = 0.7316 | 0.3878
313 K, 100 kPa, x2 = 0.876 | 0.3512
323.05 K, 100 kPa, x2 = 0.75 | 0.308
323.08 K, 100 kPa, x2 = 0.25 | 0.3879
323.09 K, 100 kPa, x2 = 0.5 | 0.3497

CC(=O)C1CCOC1=O (stereo not drawn) + CC(=O)C1CC1
101.3 kPa
Conditions | viscosity [mPa·s]
303.15 K, x2 = 0.0998 | 3.195
313.15 K, x2 = 0.3004 | 1.945

c1ccc2ccccc2c1 + CC(=O)O
viscosity
Conditions | 303.15 K | 308.15 K | 313.15 K | 318.15 K | 323.15 K
101 kPa, x1 = 0.06774 | 1.187 mPa·s | 1.093 mPa·s | 1.01 mPa·s | 0.9386 mPa·s | 0.8751 mPa·s
101 kPa, x1 = 0.116 | – | 1.108 mPa·s | 1.024 mPa·s | 0.951 mPa·s | 0.8838 mPa·s
101.33 kPa, x1 = 0.06774 | 1.187 mPa·s | 1.093 mPa·s | 1.01 mPa·s and 1.01 mPa·s | 0.9386 mPa·s | 0.8751 mPa·s
101.33 kPa, x1 = 0.08923 | – | – | 1.023 mPa·s | – | –
101.33 kPa, x1 = 0.116 | – | – | 1.024 mPa·s | – | –
101.33 kPa, x1 = 0.12 | – | 1.108 mPa·s | 1.024 mPa·s | 0.951 mPa·s | 0.8838 mPa·s
101.33 kPa, x1 = 0.1443 | – | – | 1.049 mPa·s | – | –
